We go through four molecules from paper PMC4857598 (Nuclear medicine and biology, 2012).

Where two headings read alike, the source gives them in different places.

The target of assay [1] is T1, MMP2 (Homo sapiens, UniProt P08253).
T1 sequence (P08253 110-660): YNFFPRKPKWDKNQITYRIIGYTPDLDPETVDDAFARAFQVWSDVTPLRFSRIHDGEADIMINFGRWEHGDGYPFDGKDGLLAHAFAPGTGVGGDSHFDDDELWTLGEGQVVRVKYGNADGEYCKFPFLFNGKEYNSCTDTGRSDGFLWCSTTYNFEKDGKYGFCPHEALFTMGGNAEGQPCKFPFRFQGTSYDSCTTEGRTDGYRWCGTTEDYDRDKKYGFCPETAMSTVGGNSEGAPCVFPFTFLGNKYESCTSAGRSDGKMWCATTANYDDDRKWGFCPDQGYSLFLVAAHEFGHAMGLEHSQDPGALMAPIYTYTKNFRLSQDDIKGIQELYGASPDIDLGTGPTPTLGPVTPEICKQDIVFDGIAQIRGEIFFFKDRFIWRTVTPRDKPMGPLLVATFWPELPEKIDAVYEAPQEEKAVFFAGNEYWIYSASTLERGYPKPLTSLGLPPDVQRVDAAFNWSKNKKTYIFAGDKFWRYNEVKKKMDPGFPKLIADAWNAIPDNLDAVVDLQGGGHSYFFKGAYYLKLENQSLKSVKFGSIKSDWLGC
The assay can be described thus: Ilomastat inhibition of MMP2 activity. The settings on record: 910 μM ilomastat, MMP2 1.4 μg, 37 °C, 24 hours, HPLC of fragmented peptide. It is filed as biochemical.

The subject of assay [2] is Integrin αvβ3. The settings on record: read-out: IC50 value by fluorescence polarization; cited from earlier work.
The test system of assay [3] is Integrin αvβ3. The settings on record: read-out: IC50 value by cell adhesion; cited from earlier work.
The subject of assay [4] is αvβ3. The settings on record: read-out: IC50 value; published pentapeptides; cited from earlier work.
Assay [5] concerns αvβ3. The settings on record: read-out: IC50 value; published pentapeptides; cited from earlier work. This is another data set of the same source.

Consider `CNC(=O)[C@H](Cc1c[nH]c2ccccc12)NC(=O)[C@@H](CC(=O)NO)CC(C)C` [ilomastat, N-[(2R)-2-(hydroxamidocarbonylmethyl)-4-methylpentanoyl]-L-tryptophan methylamide], for which, in assay [1], the “inhibition of MMP2 cleavage of [64Cu]c(RGDfE)K(DOTA)PLGVRY” value was “inhibition of the peptide cleavage”.

c(ERGDf) (head to tail): the IC50 in assay [2] was 280 ± 4 nM; in assay [3], 3200 ± 160 nM.

Regarding c(RGDfK), the IC50 in assay [4] was 4.2 nM.

Regarding c(rGDFV) (head to tail), in assay [5], the IC50 is 25000 ± 4000 nM.
